Measurements reported in patent US20110098227A1, “Soluble notch-based substrates for gamma secretase and methods and compositions for using same” (priority 2002, published 2011).

Legend:
solubilized γ-secretase [1] = molecular target: T1, solubilized γ-secretase (Homo sapiens, UniProt P49768); experiment: Cleavage of Notch as determined by Western blot analysis; type: biochemical
T1 construct: γ-secretase activity from HeLa cells specifically cleaves the Notch protein; endogenous in cells; host or cells: HeLa cells (detergent-solubilized membrane fraction); substrate made in E. coli BL21 (DE3)
Method: Cleavage of Notch as Determined by Western Blot Analysis. NusA-Notch fusion (1.7 μM) was incubated with 70 mg/ml solubilized γ-secretase in 50 mM Pipes, pH 7.0, 0.25% CHAPSO in a total volume of 50 μl overnight at 37° C. DAPT (PHA-568638) was added at varying concentrations. The reactions were stopped with the addition of 12.5 μl of 5× Laemmli buffer (Laemmli 1970) and 30 μl of the mixture was electrophoresed on a 15% SDS-PAGE. Proteins were transferred to nitrocellulose using a semi-dry blot apparatus (Millipore) and blocked for 2 hours using 4% BSA in PBS/0.5% Tween-20. […] The membrane was washed three times with PBS/0.5% Tween-20 followed by incubation with anti-rabbit IgG-HRP (1:5000 dil in 4% BSA in PBS/0.5% Tween-20). The membrane was again washed three times and developed using ECL reagents (Amersham, Piscataway, N.J.).

solubilized γ-secretase [2] = molecular target: T1, solubilized γ-secretase; experiment: In vitro Notch cleavage ELISA (NusA-Notch fusion cleaved by solubilized γ-secretase, Val-1744/anti-FLAG sandwich); type: biochemical
Method: In vitro Notch Cleavage ELISA. Notch cleavage was also assessed using an ELISA technique. Prior to setting up a reaction, the required number of wells in a 96-well half-area plate (Costar) were coated with 50 μl of Val-1744 antibody diluted 1:200 in 0.1 M NaHCO3, pH 8.2. Plates were incubated overnight at 4° C. The Notch cleavage reaction was set up as follows. NusA-Notch (0.9 μM) was incubated with 70 mg/ml of solubilized γ-secretase in 50 mM Pipes, pH 7.0, 0.25% CHAPSO in a total volume of 25 μl overnight at 37° C. The next day, the plate coated with Val-1744 antibody was washed 3 times with PBS/0.05% Tween-20 and blocked using 4% BSA in PBS/0.05% Tween-20 for 1 hour. […] The color was allowed to develop for 1 hour and 50 µl of 1M H3PO4 was added and the plates read at 450 nm on a SpectraMax Plus plate reader. […]
Inhibition of Notch Cleavage. […] IC50′s were calculated for inhibitors using the 4-parameter logistic model in the GraFit 4.0 program.
It is based on a sandwich ELISA using the highly specific anti-Val 1744 and anti Flag antibodies to capture the N- and C-terminus of the NICD fragment from the Notch fusion protein in the presence of γ-secretase. […] The chromogenic substrate for HRP, TMB reagent (Kirkegaard & Perry) is added and the color once developed is read at 450 nm on a SpectraMax Plus plate reader.

inhibition of specific cleavage in Notch protein (1743/1744) (solubilized γ-secretase [1]; Western blot probed with Val-1744 antibody, varying concentrations, FIG. 5 lanes 4-8)	IC50 (solubilized γ-secretase [2]; NusA-Notch substrate, overnight 37° C., FIG. 9, read-out: IC50, inhibition of γ-secretase-mediated Notch cleavage) [nM]	Compound	inhibition of cleavage products of Notch fusion protein (solubilized γ-secretase [1]; Western blot using the C-terminal Flag antibody, three immunoreactive bands)	Km (solubilized γ-secretase [2]; Michaelis-Menten fit, 0.11 to 3.6 μM substrate, FIG. 8A, read-out: apparent Km for hydrolysis of Notch fusion protein substrate by solubilized γ-secretase activity) [µM]
inhibited in a dose-dependent manner	2.4	C[C@H](NC(=O)Cc1cc(F)cc(F)c1)C(=O)N[C@H](C(=O)OC(C)(C)C)c1ccccc1 [DAPT]	only one cleavage product was inhibitable	–
–	–	Notch fusion protein substrate: soluble fusion of mouse Notch-1 amino acids 1703-1860 to C-terminus of NusA with C-terminal Flag and 8His tags (SEQ ID NO:2)	–	~0.7
